Experimental data: US7803546B2, “Method of screening for sensitivity to kinase inhibitor therapy” (Cedars-Sinai Medical Center, priority 2002, dated 2010)

Experiments:
[1] = test system: androgen-independent (CWR22R) xenograft tumors
Description: (§1) A control (i.e., no TKI administered) is graphically depicted as well. This experiment was performed in an androgen-independent prostate xenograft model. […] The daily dosing was at the maximally tolerated dosage in the mice.
as §1

[2] = test system: IRESSA-resistant (IR) CWR22R tumors; assay: Treatment of IRESSA-resistant (IR) CWR22R tumor lines; settings: after three weeks of treatment, tumor growth curves
[3] = test system: non-small cell lung cancer; assay: Clinical response to TKI therapy in non-small cell lung cancer patients, correlated with EMP-1 expression; type: in vivo, human; settings: NSCLC patients; EMP-1 detectable by TAQMAN
Description: The gene expression profiles of IR tumors were analyzed by gene chip analysis, using the gene arrays described in Alon et al., Proc. Natl. Acad. Sci. USA, vol. […] Presence of EMP-1 RNA was assessed with TAQMAN from paraffin samples.

COc1cc2ncnc(Nc3ccc(F)c(Cl)c3)c2cc1OCCCN1CCOCC1 [IRESSA, Gefitnib]
Tolerability of weekly dosing ([1]; mouse, in vivo): well tolerated
Decrease in tumor volume in this tumor model ([1]; summary range following IRESSA treatment (covers CWR22 and CWR22R)): 50-70%
Response of serially passaged tumors to IRESSA, generations F0-F3 [2]: demonstrated sensitivity
Probability of response to therapy in individuals with EMP-1 expression above threshold [3]: less than 10%
